According to patent publication US10912850B2, “18F-FNDP for pet imaging of soluble epoxide hydrolase (sEH)” (THE JOHNS HOPKINS UNIVERSITY, priority 2016, dated 2021):
Where “and” joins values, the source holds several entries; their conditions need not be identical. Equal values may be shown once. Read-outs that look alike come from different tables or passages of the source.

Experiments:
[1] = Molecular properties (log P); format: physicochemical
[2] = Radiometabolite HPLC analysis of baboon arterial plasma; format: in vivo, Papio anubis (baboon); details: 90 min post-injection
Procedure: Baboon arterial blood samples were collected at very short intervals (<5 s) initially and gradually at prolonged intervals throughout the PET study for determination of plasma radioactivity. […] Med. Biol., 2000). […] The effluent from the capture column, containing only highly polar components, flowed through a dual BGO detector (Bioscan, Washington, D.C.). The solvent was then switched to a mixture of 60% acetonitrile/40% 0.1 M aqueous ammonium formate pH=2.7 (2 mL/min) to elute the radiolabeled components bound to the capture column onto the analytical column (Gemini C18, 4.6×254 mm, Phenomenex, Torrance, Calif.).

sEH [3] = format: in vivo, mice (sEH-KO, C57BL/6); details: for Regional uptake, baseline: C57BL6 control mice, 60 min post-injection
Procedure: All animals were sacrificed at 60 min after radiotracer injection.

[4] = Baseline regional brain biodistribution of 18F-FNDP in CD-1 mice; format: in vivo; details: for Regional distribution in CD-1 mouse brain (mean % ID/g tissue ± SD): n=3
Procedure: Baseline study in CD1 mice. […] The brains were removed and dissected on ice. Striatum, cortex, hippocampus, hypothalamus, cerebellum and the rest of brain were weighed and their radioactivity content was determined in a γ-counter LKB/Wallac 1283 CompuGamma CS (Perkin Elmer, Bridgeport, Conn.). Aliquots of the injectate were prepared as standards and their radioactivity content was determined along with the tissue samples. The percent of injected dose per gram of tissue (% ID/g tissue) was calculated.

sEH [5] = assay: Baboon dynamic PET imaging, baseline and blocking (SUV, VT, K1); details: for Time of regional TAC peak: post-injection; for Average K1 (rate constant for transfer from arterial plasma to tissue): two-tissue-three-compartment model
Procedure: Dynamic baseline and blocking PET experiments (90 min) were performed on three male baboons (Papio anubis) weighing 23.9, 25.0 and 28.2 kg, using the High Resolution Research Tomograph (HRRT, CPS Innovations, Inc., Knoxville, Tenn.). […] Radiometabolite analysis in baboon arterial blood was performed under the general conditions published previously (Hilton et al., Nucl. Med. Biol., 2000).
PET experiments were performed on a male baboon (Papio anubis) weighing 28.2 kg, using the High Resolution Research Tomograph (HRRT, CPS Innovations, Inc., Knoxville, Tenn.). The animal underwent one baseline PET scan and one blocking scan 3 weeks later. The animal was fasted for 12 h prior to each PET study. Anesthesia was induced with intramuscular ketamine (7.5-10 mg/kg) and maintained with a continuous intravenous infusion of propofol at 0.3-0.4 mg/kg/min throughout the PET experiment. One venous catheter was inserted for the radioligand injection, and one arterial catheter inserted to obtain arterial blood samples. Measurement of the arterial plasma input function was conducted through collection of 43 blood samples over the course of the 90 min dynamic PET scan. The baboon was also intubated to facilitate respiration, and circulatory volume was maintained by constant infusion of isotonic saline. Physiological vital signs including heart rate, blood pressure, electrocardiogram, and oxygen saturation were monitored continuously throughout the study.
The animal was positioned in the PET scanner with the head immobilized with a thermoplastic mask. A 6 min transmission scan was acquired using a rotating [^137Cs] cesium source for attenuation correction.
The 90 min PET list mode data were binned into 22 frames (three 20 s, two 30 s, two 1 min, three 2 min, eight 5 min, and four 10 min frames). The data were then reconstructed using the iterative ordered subsets expectation maximization (OS-EM) algorithm (with six iterations and 16 subsets), with correction for radioactive decay, dead time, attenuation, scatter and randoms. The attenuation maps were generated from 6 min transmission scans performed with a [^137Cs] cesium point source prior to the emission scans. The reconstructed image space consisted of cubic voxels, each 1.22 mm^3 in size, and spanning dimensions of 31 cm×31 cm (transaxially) and 25 cm (axially).
The software package PMOD (v3.3, PMOD Technologies Ltd, Zurich, Switzerland) was used for the following image processing and subsequent kinetic analysis steps. The previously acquired brain MRI T1-weighted images for the baboon were co-registered to the reconstructed dynamic PET images acquired in this study. Through manually matching the co-registered MRI to the INIA19 Template and NeuroMaps Atlas for Primate Brain Image Parcellation and Spatial Normalization (Rohlfing et al., Frontiers in neuroinformatics, 2012), 13 representative baboon brain VOIs were defined, including frontal and temporal gyms, thalamus, hippocampus, caudate, putamen, amygdala, globus pallidus, insula, hypothalamus, cerebellum, corpus callosum, and white matter. Brain regional TACs were then generated for both baseline and blocking PET scans using those VOIs.
Following the consensus nomenclature for in vivo imaging of reversibly binding radioligands (Innis et al., J. Cereb. Blood Flow Metab., 2007), due to the lack of a non-displaceable reference region, the main outcome measure was regional distribution volume (VT), defined as the ratio of the concentration of the radioligand in regional brain tissue to that in plasma at equilibrium. Regional VT is proportional to the receptor density in the defined VOL VT was calculated using the Logan graphical method for each VOI (Logan et al., J. Cereb. Blood Flow Metab., 1990).

sEH [6] = biological target: T1, sEH (Mus musculus, UniProt P34914); assay: Blocking of 18F-FNDP binding in CD-1 mice with nor-fluoro-FNDP (dose escalation); format: in vivo
T1 construct: from tissue; host or cells: brain of living CD-1 mice (striatum, cortex, hippocampus, cerebellum)
T1 sequence (P34914 1-554): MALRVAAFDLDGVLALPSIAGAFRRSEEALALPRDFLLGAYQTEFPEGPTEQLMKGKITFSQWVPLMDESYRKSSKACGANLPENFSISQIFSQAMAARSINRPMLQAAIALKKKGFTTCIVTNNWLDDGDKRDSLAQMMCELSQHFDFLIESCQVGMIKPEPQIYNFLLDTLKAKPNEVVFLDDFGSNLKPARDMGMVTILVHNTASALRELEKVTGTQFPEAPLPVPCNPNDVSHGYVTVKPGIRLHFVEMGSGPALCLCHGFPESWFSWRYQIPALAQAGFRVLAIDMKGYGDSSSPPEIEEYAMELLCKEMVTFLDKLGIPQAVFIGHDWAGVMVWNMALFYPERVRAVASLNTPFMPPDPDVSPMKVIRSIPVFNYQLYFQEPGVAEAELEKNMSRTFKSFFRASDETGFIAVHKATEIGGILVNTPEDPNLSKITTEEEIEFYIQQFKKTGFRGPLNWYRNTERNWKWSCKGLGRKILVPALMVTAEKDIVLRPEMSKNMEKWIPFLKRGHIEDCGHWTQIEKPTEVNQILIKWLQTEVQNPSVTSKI
Procedure: Ninety minutes after administration of the radiotracer the animals were sacrificed by cervical dislocation, brain tissues were harvested, and their radioactivity content was determined.

## O=C(NCCC(c1ccccc1)c1ccccc1)c1ccc(F)nc1 [FNDP, N-(3,3-diphenylpropyl)-6-fluoronicotinamide]
[1]
  log P: 2.9

## O=C(NCCC(c1ccccc1)c1ccccc1)c1ccc([18F])nc1 [^18F-FNDP, N-(3,3-diphenylpropyl)-6-^18F-fluoronicotinamide]
[2]
  Parent compound remaining in plasma: 20%
sEH [3]; cerebellum
  Regional uptake, baseline: 0.5 % ID/g
sEH [3]; striatum, hippocampus and cortex
  Regional uptake, baseline: about 1 % ID/g
sEH [3]; C57BL6 mice, all regions studied, nor-fluoro-FNDP 1 mg/kg s.c., 60 min
  Brain uptake, blocking experiment: ~0.2 % ID/g tissue
sEH [3]; C57BL/6 controls, nor-fluoro-FNDP 1 mg/kg s.c.
  Blocking effect: about 80%
sEH [3]; baseline, 60 min after radiotracer injection, C57BL/6 controls
  Reduction of uptake in sEH-KO mice as compared with controls: about 90%
sEH [3]; sEH-KO mice
  Radiotracer uptake in sEH-KO mice: Minimal
sEH [3]; sEH-KO mice, 60 min
  Regional brain uptake, baseline: 0.11-0.12 % ID/g
sEH [3]; sEH-KO mice, blocker nor-fluoro-FNDP
  Reduction of uptake in blockade study: negligible
sEH [3]; sEH-KO mice, nor-fluoro-FNDP 1 mg/kg s.c., 60 min
  Regional brain uptake, blocking: 0.10-0.11 % ID/g
sEH [3]; sEH-KO vs controls
  Brain uptake in sEH-KO mice lower than in controls: 10 fold
[4]; CD-1 mice, at peak uptake
  Peak brain uptake: 5.2 percent injected dose per gram of tissue
[4]; Cerebellum, 5 min
  Regional distribution in CD-1 mouse brain (mean % ID/g tissue ± SD): 2.75 ± 0.11 % ID/g tissue
[4]; Cerebellum, 15 min
  Regional distribution in CD-1 mouse brain (mean % ID/g tissue ± SD): 1.31 ± 1.01 % ID/g tissue
[4]; Cerebellum, 30 min
  Regional distribution in CD-1 mouse brain (mean % ID/g tissue ± SD): 1.09 ± 0.16 % ID/g tissue
[4]; Cerebellum, 60 min
  Regional distribution in CD-1 mouse brain (mean % ID/g tissue ± SD): 0.52 ± 0.07 % ID/g tissue
[4]; Cerebellum, 90 min
  Regional distribution in CD-1 mouse brain (mean % ID/g tissue ± SD): 0.29 ± 0.04 % ID/g tissue
[4]; Cortex, 5 min
  Regional distribution in CD-1 mouse brain (mean % ID/g tissue ± SD): 4.69 ± 0.21 % ID/g tissue
[4]; Cortex, 15 min
  Regional distribution in CD-1 mouse brain (mean % ID/g tissue ± SD): 2.92 ± 0.36 % ID/g tissue
[4]; Cortex, 30 min
  Regional distribution in CD-1 mouse brain (mean % ID/g tissue ± SD): 2.07 ± 0.05 % ID/g tissue
[4]; Cortex, 60 min
  Regional distribution in CD-1 mouse brain (mean % ID/g tissue ± SD): 0.87 ± 0.14 % ID/g tissue
[4]; Cortex, 90 min
  Regional distribution in CD-1 mouse brain (mean % ID/g tissue ± SD): 0.45 ± 0.05 % ID/g tissue
[4]; Hippocampus, 5 min
  Regional distribution in CD-1 mouse brain (mean % ID/g tissue ± SD): 3.29 ± 0.54 % ID/g tissue
[4]; Hippocampus, 15 min
  Regional distribution in CD-1 mouse brain (mean % ID/g tissue ± SD): 2.51 ± 0.34 % ID/g tissue
[4]; Hippocampus, 30 min
  Regional distribution in CD-1 mouse brain (mean % ID/g tissue ± SD): 1.76 ± 0.15 % ID/g tissue
[4]; Hippocampus, 60 min
  Regional distribution in CD-1 mouse brain (mean % ID/g tissue ± SD): 0.81 ± 0.15 % ID/g tissue
[4]; Hippocampus, 90 min
  Regional distribution in CD-1 mouse brain (mean % ID/g tissue ± SD): 0.43 ± 0.06 % ID/g tissue
[4]; Hypothalamus, 5 min
  Regional distribution in CD-1 mouse brain (mean % ID/g tissue ± SD): 2.59 ± 0.18 % ID/g tissue
[4]; Hypothalamus, 15 min
  Regional distribution in CD-1 mouse brain (mean % ID/g tissue ± SD): 1.66 ± 0.28 % ID/g tissue
[4]; Hypothalamus, 30 min
  Regional distribution in CD-1 mouse brain (mean % ID/g tissue ± SD): 1.04 ± 0.08 % ID/g tissue
[4]; Hypothalamus, 60 min
  Regional distribution in CD-1 mouse brain (mean % ID/g tissue ± SD): 0.51 ± 0.07 % ID/g tissue
[4]; Hypothalamus, 90 min
  Regional distribution in CD-1 mouse brain (mean % ID/g tissue ± SD): 0.31 ± 0.05 % ID/g tissue
[4]; Rest of brain, 5 min
  Regional distribution in CD-1 mouse brain (mean % ID/g tissue ± SD): 3.53 ± 0.11 % ID/g tissue
[4]; Rest of brain, 15 min
  Regional distribution in CD-1 mouse brain (mean % ID/g tissue ± SD): 2.37 ± 0.34 % ID/g tissue
[4]; Rest of brain, 30 min
  Regional distribution in CD-1 mouse brain (mean % ID/g tissue ± SD): 1.64 ± 0.06 % ID/g tissue
[4]; Rest of brain, 60 min
  Regional distribution in CD-1 mouse brain (mean % ID/g tissue ± SD): 0.71 ± 0.10 % ID/g tissue
[4]; Rest of brain, 90 min
  Regional distribution in CD-1 mouse brain (mean % ID/g tissue ± SD): 0.38 ± 0.04 % ID/g tissue
[4]; Striatum, 5 min
  Regional distribution in CD-1 mouse brain (mean % ID/g tissue ± SD): 5.24 ± 0.45 % ID/g tissue
[4]; Striatum, 15 min
  Regional distribution in CD-1 mouse brain (mean % ID/g tissue ± SD): 3.29 ± 0.36 % ID/g tissue
[4]; Striatum, 30 min
  Regional distribution in CD-1 mouse brain (mean % ID/g tissue ± SD): 2.32 ± 0.15 % ID/g tissue
[4]; Striatum, 60 min
  Regional distribution in CD-1 mouse brain (mean % ID/g tissue ± SD): 1.07 ± 0.14 % ID/g tissue
[4]; Striatum, 90 min
  Regional distribution in CD-1 mouse brain (mean % ID/g tissue ± SD): 0.54 ± 0.07 % ID/g tissue
[4]; mouse brain, peak (5 min post-injection)
  Peak brain uptake value: 5.2 % ID/g and 5 % ID/g
sEH [5]; baboon PET, all regions
  Blockade of brain uptake: 95%
sEH [5]; baboon blocking study (nor-fluoro-FNDP 2 mg/kg s.c.)
  Time of regional TAC peak: about 1 min
sEH [5]; baboon blocking study, end of 90 min scan
  Average SUV at the end of the scan: 0.18 g/mL
sEH [5]; baboon brain
  Brain SUV: 4
sEH [5]; baboon brain, baseline scan
  Time of regional TAC peak: about 5 min
sEH [5]; baboon, baseline scan
  Peak SUV of the entire brain: 3.2
sEH [5]; baboon, baseline, end of 90 min dynamic scan
  SUV of the entire brain at the end of the scan: 1.8
sEH [5]; baboon, baseline
  Average K1 (rate constant for transfer from arterial plasma to tissue): 0.18 ml/cm^3/min
sEH [5]; baboon, blocking
  Average K1 (rate constant for transfer from arterial plasma to tissue): 0.14 ml/cm^3/min
sEH [5]; baboon, cerebellum
  Reduction of VT, blocking vs baseline: 93%
sEH [5]; baboon, end of 90 min scan
  Average SUV at end of blocking scan as percent of the baseline value: 10%
sEH [5]; baboon, insula and amygdala
  Reduction of VT, blocking vs baseline: 95%
sEH [5]; both animal species (mouse and baboon)
  Specificity of sEH radiolabeling: up to 95%
sEH [6]; CD-1 mouse brain, blocker nor-fluoro-FNDP
  Residual (non-specific) binding at the high dose of the blocker: 10%
sEH [6]; mice, all brain regions, pre-treatment with sEH inhibitor
  Blockade of uptake: 80-90%
sEH [6]; two strains of control mice (CD-1 and C57BL/6)
  Degree of specificity of cerebral sEH labeling: 80-90%
